Assay results published in patent US8962843B2, “1,3,4-oxadiazole and 1,3,4-thiadiazole beta-lactamase inhibitors” (priority 2012, dated 2015).
Counter-ions that a name gives are not always drawn.

Key:
[1] = system: bacterial strains that express the class D cephalosporinase OXA-15; experiment: Standard BLI potentiation MIC / synergy MIC assays, strains expressing OXA-15; type: cell-based, E. coli; conditions: in combination with a β-lactam; comparator Avibactam (CCC)
Summary of the method: (§1)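 Broth microdilution in cation-adjusted Mueller Hinton broth per CLSI M07-A9, ~10^5 CFU/mL, 18-20 h at 37 °C with aeration; engineered E. coli carrying β-lactamase plasmids kept on 25 μg/mL tetracycline. β-lactam MIC measured in 2-fold dilutions (128-0.13 μg/mL) with BLI fixed at 4 μg/mL; sMIC titrates BLI against a fixed β-lactam concentration. MIC = lowest concentration without visible turbidity.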

[2] = system: bacterial strains that express KPC β-lactamases; experiment: Standard BLI potentiation MIC / synergy MIC assays, strains expressing KPC β-lactamases; type: cell-based; conditions: in combination with a β-lactam; comparator Avibactam
Summary of the method: as §1

Row | SMILES | activity against bacterial strains that express the class D cephalosporinase OXA-15, compared with Avibactam [1] | activity and/or spectrum of activity against bacterial strains that express KPC β-lactamases, compared with Avibactam [2]
1 | N=C(N)NC1CC(Cc2nnc([C@@H]3CC[C@@H]4CN3C(=O)N4OS(=O)(=O)O)o2)C1 (stereo partly drawn) [Compound 752, (2S,5R)-2-(5-((3-guanidinocyclobutyl)methyl)-1,3,4-oxadiazol-2-yl)-7-oxo-1,6-diazabicyclo[3.2.1]octan-6-yl hydrogen sulfate] | more active than Avibactam | more active than Avibactam for at least one, bacterial strain that expresses KPC β-lactamase and/or show a better spectrum of activity
2 | N[C@H]1C[C@H](CCc2nnc([C@@H]3CC[C@@H]4CN3C(=O)N4OS(=O)(=O)O)o2)C1 [Compound 753, (2S,5R)-2-(5-(2-((1r,3R)-3-aminocyclobutyl)ethyl)-1,3,4-oxadiazol-2-yl)-7-oxo-1,6-diazabicyclo[3.2.1]octan-6-yl hydrogen sulfate] | more active than Avibactam | more active than Avibactam for at least one, bacterial strain that expresses KPC β-lactamase and/or show a better spectrum of activity
3 | N[C@H]1C[C@@H](CCc2nnc([C@@H]3CC[C@@H]4CN3C(=O)N4OS(=O)(=O)O)o2)C1 [Compound 754, (2S,5R)-2-(5-(2-((1s,3S)-3-aminocyclobutyl)ethyl)-1,3,4-oxadiazol-2-yl)-7-oxo-1,6-diazabicyclo[3.2.1]octan-6-yl hydrogen sulfate] | more active than Avibactam | more active than Avibactam for at least one, bacterial strain that expresses KPC β-lactamase and/or show a better spectrum of activity
4 | NC1CC(NCc2nnc([C@@H]3CC[C@@H]4CN3C(=O)N4OS(=O)(=O)O)o2)C1 (stereo partly drawn) [Compound 755, (2S,5R)-2-(5-(((3-aminocyclobutyl)amino)methyl)-1,3,4-oxadiazol-2-yl)-7-oxo-1,6-diazabicyclo[3.2.1]octan-6-yl hydrogen sulfate] | more active than Avibactam | more active than Avibactam for at least one, bacterial strain that expresses KPC β-lactamase and/or show a better spectrum of activity
5 | N[C@H]1C[C@@H](NCc2nnc([C@@H]3CC[C@@H]4CN3C(=O)N4OS(=O)(=O)O)o2)C1 [Compound 756, (2S,5R)-2-(5-((((1s,3R)-3-aminocyclobutyl)amino)methyl)-1,3,4-oxadiazol-2-yl)-7-oxo-1,6-diazabicyclo[3.2.1]octan-6-yl hydrogen sulfate] | more active than Avibactam | more active than Avibactam for at least one, bacterial strain that expresses KPC β-lactamase and/or show a better spectrum of activity
6 | O=C1N2C[C@@H](CC[C@H]2c2nnc([C@H]3CCNC3)o2)N1OS(=O)(=O)O [Compound 758, (2S,5R)-7-oxo-2-(5-((S)-pyrrolidin-3-yl)-1,3,4-oxadiazol-2-yl)-1,6-diazabicyclo[3.2.1]octan-6-yl hydrogen sulfate] | more active than Avibactam | more active than Avibactam for at least one, bacterial strain that expresses KPC β-lactamase and/or show a better spectrum of activity
7 | O=C1N2C[C@@H](CC[C@H]2c2nnc([C@@H]3CCNC3)o2)N1OS(=O)(=O)O [Compound 759, (2S,5R)-7-oxo-2-(5((R)-pyrrolidin-3-yl)-1,3,4-oxadiazol-2-yl)-1,6-diazabicyclo[3.2.1]octan-6-yl hydrogen sulfate] | more active than Avibactam | more active than Avibactam for at least one, bacterial strain that expresses KPC β-lactamase and/or show a better spectrum of activity
8 | N[C@@H]1CN[C@H](c2nnc([C@@H]3CC[C@@H]4CN3C(=O)N4OS(=O)(=O)O)o2)C1 [Compound 760, (2S,5R)-2-(5-((2S,4S)-4-aminopyrrolidin-2-yl)-1,3,4-oxadiazol-2-yl)-7-oxo-1,6-diazabicyclo[3.2.1]octan-6-yl hydrogen sulfate] | more active than Avibactam | more active than Avibactam for at least one, bacterial strain that expresses KPC β-lactamase and/or show a better spectrum of activity
9 | N[C@H]1CN[C@@H](c2nnc([C@@H]3CC[C@@H]4CN3C(=O)N4OS(=O)(=O)O)o2)C1 [Compound 761, (2S,5R)-2-(5-((2R,4R)-4-aminopyrrolidin-2-yl)-1,3,4-oxadiazol-2-yl)-7-oxo-1,6-diazabicyclo[3.2.1]octan-6-yl hydrogen sulfate] | more active than Avibactam | more active than Avibactam for at least one, bacterial strain that expresses KPC β-lactamase and/or show a better spectrum of activity
10 | N[C@H]1CN[C@H](c2nnc([C@@H]3CC[C@@H]4CN3C(=O)N4OS(=O)(=O)O)o2)C1 [Compound 762, (2S,5R)-2-(5-((2S,4R)-4-aminopyrrolidin-2-yl)-1,3,4-oxadiazol-2-yl)-7-oxo-1,6-diazabicyclo[3.2.1]octan-6-yl hydrogen sulfate] | more active than Avibactam | more active than Avibactam for at least one, bacterial strain that expresses KPC β-lactamase and/or show a better spectrum of activity
11 | N[C@@H]1CN[C@@H](c2nnc([C@@H]3CC[C@@H]4CN3C(=O)N4OS(=O)(=O)O)o2)C1 [Compound 763, (2S,5R)-2-(5-((2R,4S)-4-aminopyrrolidin-2-yl)-1,3,4-oxadiazol-2-yl)-7-oxo-1,6-diazabicyclo[3.2.1]octan-6-yl hydrogen sulfate] | more active than Avibactam | more active than Avibactam for at least one, bacterial strain that expresses KPC β-lactamase and/or show a better spectrum of activity
12 | O=C1N2C[C@@H](CC[C@H]2c2nnc(CC3CCNC3)o2)N1OS(=O)(=O)O (stereo partly drawn) [Compound 764, (2S,5R)-7-oxo-2-(5-(pyrrolidin-3-ylmethyl)-1,3,4-oxadiazol-2-yl)-1,6-diazabicyclo[3.2.1]octan-6-yl hydrogen sulfate] | more active than Avibactam | more active than Avibactam for at least one, bacterial strain that expresses KPC β-lactamase and/or show a better spectrum of activity
13 | O=C1N2C[C@@H](CC[C@H]2c2nnc(CN[C@H]3CCNC3)o2)N1OS(=O)(=O)O [Compound 765, (2S,5R)-7-oxo-2-(5-(((S)-pyrrolidin-3-ylamino)methyl)-1,3,4-oxadiazol-2-yl)-1,6-diazabicyclo[3.2.1]octan-6-yl hydrogen sulfate] | more active than Avibactam | more active than Avibactam for at least one, bacterial strain that expresses KPC β-lactamase and/or show a better spectrum of activity
14 | O=C1N2C[C@@H](CC[C@H]2c2nnc(CN[C@@H]3CCNC3)o2)N1OS(=O)(=O)O [Compound 766, (2S,5R)-7-oxo-2-(5-(((R)-pyrrolidin-3-ylamino)methyl)-1,3,4-oxadiazol-2-yl)-1,6-diazabicyclo[3.2.1]octan-6-yl hydrogen sulfate] | more active than Avibactam | more active than Avibactam for at least one, bacterial strain that expresses KPC β-lactamase and/or show a better spectrum of activity
15 | N=C1NCC(c2nnc([C@@H]3CC[C@@H]4CN3C(=O)N4OS(=O)(=O)O)o2)N1 (stereo partly drawn) [Compound 767, (2S,5R)-2-(5-(2-iminoimidazolidin-4-yl)-1,3,4-oxadiazol-2-yl)-7-oxo-1,6-diazabicyclo[3.2.1]octan-6-yl hydrogen sulfate] | more active than Avibactam | more active than Avibactam for at least one, bacterial strain that expresses KPC β-lactamase and/or show a better spectrum of activity
16 | N[C@H]1CC[C@@H](c2nnc([C@@H]3CC[C@@H]4CN3C(=O)N4OS(=O)(=O)O)o2)C1 [Compound 768, (2S,5R)-2-(5-((1R,3S)-3-aminocyclopentyl)-1,3,4-oxadiazol-2-yl)-7-oxo-1,6-diazabicyclo[3.2.1]octan-6-yl hydrogen sulfate] | more active than Avibactam | more active than Avibactam for at least one, bacterial strain that expresses KPC β-lactamase and/or show a better spectrum of activity
